From patent US10519152B2, “Compounds and their use in treating cancer” (AstraZeneca AB, priority 2017, dated 2019)
pIC50: −log10 of the molar value.

target: T1, recombinant human Estrogen Receptor alpha ligand binding domain, residues 307-554 (ER alpha-LBD (GST)) (Homo sapiens, UniProt P03372); test: ERα binding assay (LanthaScreen TR-FRET competition); conditions: TR-FRET competition with Fluormone ES2 tracer, 4 hours at room temperature; single experiment or average of two or more
T1 construct: made in house
T1 sequence (P03372 307-554): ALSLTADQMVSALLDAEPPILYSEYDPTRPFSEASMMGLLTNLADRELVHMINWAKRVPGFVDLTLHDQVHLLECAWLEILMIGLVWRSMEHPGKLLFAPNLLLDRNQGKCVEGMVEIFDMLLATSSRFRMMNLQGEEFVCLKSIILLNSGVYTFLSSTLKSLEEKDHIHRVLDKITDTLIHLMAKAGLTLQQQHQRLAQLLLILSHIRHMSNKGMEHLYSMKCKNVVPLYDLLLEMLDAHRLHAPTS

`Cc1ncsc1-c1ccc(CNC(=O)[C@@H]2C[C@@H](O)CN2C(=O)[C@@H](NC(=O)CCCCOCCCCCOc2cc(F)c([C@@H]3c4[nH]c5ccccc5c4C[C@@H](C)N3CC(C)(C)F)c(F)c2)C(C)(C)C)cc1` [Example 113, (2S,4R)-1-((S)-2-(5-((5-(3,5-Difluoro-4-((1R,3R)-2-(2-fluoro-2-methylpropyl)-3-methyl-2,3,4,9-tetrahydro-1H-pyrido[3,4-b]indol-1-yl)phenoxy)pentyl)oxy)pentanamido)-3,3-dimethylbutanoyl)-4-hydroxy-N-(4-(4-methylthiazol-5-yl)benzyl)pyrrolidine-2-carboxamide] and `Cc1ncsc1-c1ccc(CNC(=O)[C@@H]2C[C@@H](O)CN2C(=O)[C@@H](NC(=O)CCCCCCOCCCOc2cc(F)c([C@@H]3c4[nH]c5ccccc5c4C[C@@H](C)N3CC(C)(C)F)c(F)c2)C(C)(C)C)cc1` [Example 110, (2S,4R)-1-((S)-2-(7-(3-(3,5-difluoro-4-((1R,3R)-2-(2-fluoro-2-methylpropyl)-3-methyl-2,3,4,9-tetrahydro-1H-pyrido[3,4-b]indol-1-yl)phenoxy)propoxy)heptanamido)-3,3-dimethylbutanoyl)-4-hydroxy-N-(4-(4-methylthiazol-5-yl)benzyl)pyrrolidine-2-carboxamide] are within 0.2 log units of each other in pIC50: 9.22 for the first, 9.15 for the second.

Compared with `Cc1ncsc1-c1ccc(CNC(=O)[C@@H]2C[C@@H](O)CN2C(=O)[C@@H](NC(=O)COCCC(F)(F)CCOc2cc(F)c([C@@H]3c4[nH]c5ccccc5c4C[C@@H](C)N3CC(C)(C)F)c(F)c2)C(C)(C)C)cc1` [Example 130, (2S,4R)-1-((S)-2-(2-((5-(3,5-Difluoro-4-((1R,3R)-2-(2-fluoro-2-methylpropyl)-3-methyl-2,3,4,9-tetrahydro-1H-pyrido[3,4-b]indol-1-yl)phenoxy)-3,3-difluoropentyl)oxy)acetamido)-3,3-dimethylbutanoyl)-4-hydroxy-N-(4-(4-methylthiazol-5-yl)benzyl)pyrrolidine-2-carboxamide], `Cc1ncsc1-c1ccc(CNC(=O)[C@@H]2C[C@@H](O)CN2C(=O)[C@@H](NC(=O)COCCCCCCCCOc2cc(F)c([C@@H]3c4[nH]c5ccccc5c4C[C@@H](C)N3CC(C)(C)F)c(F)c2)C(C)(C)C)cc1` [Example 12, (2S,4R)-1-((S)-2-(2-((8-(3,5-Difluoro-4-((1R,3R)-2-(2-fluoro-2-methylpropyl)-3-methyl-2,3,4,9-tetrahydro-1H-pyrido[3,4-b]indol-1-yl)phenoxy)octyl)oxy)acetamido)-3,3-dimethylbutanoyl)-4-hydroxy-N-(4-(4-methylthiazol-5-yl)benzyl)pyrrolidine-2-carboxamide] is 0.25 log units lower in pIC50: 9.05 for the first, 8.80 for the second. The first is the more potent here.

Compared with `Cc1ncsc1-c1ccc(CNC(=O)[C@@H]2C[C@@H](O)CN2C(=O)[C@@H](NC(=O)COCCCCCOCCOc2ccc([C@@H]3c4[nH]c5ccccc5c4C[C@@H](C)N3CC(F)F)nc2)C(C)(C)C)cc1` [Example 10, (2S,4R)-1-((S)-2-(2-((5-(2-((6-((1S,3R)-2-(2,2-Difluoroethyl)-3-methyl-2,3,4,9-tetrahydro-1H-pyrido[3,4-b]indol-1-yl)pyridin-3-yl)oxy)ethoxy)pentyl)oxy)acetamido)-3,3-dimethylbutanoyl)-4-hydroxy-N-(4-(4-methylthiazol-5-yl)benzyl)pyrrolidine-2-carboxamide], `Cc1ncsc1-c1ccc(CNC(=O)[C@@H]2C[C@@H](O)CN2C(=O)[C@@H](NC(=O)CCOCCCCCCCOc2cc(F)c([C@@H]3c4[nH]c5ccccc5c4C[C@@H](C)N3CC(C)(C)F)c(F)c2)C(C)(C)C)cc1` [Example 115, (2S,4R)-1-((S)-2-(3-((7-(3,5-difluoro-4-((1R,3R)-2-(2-fluoro-2-methylpropyl)-3-methyl-2,3,4,9-tetrahydro-1H-pyrido[3,4-b]indol-1-yl)phenoxy)heptyl)oxy)propanamido)-3,3-dimethylbutanoyl)-4-hydroxy-N-(4-(4-methylthiazol-5-yl)benzyl)pyrrolidine-2-carboxamide] is 1.74 log units higher in pIC50: 7.41 for the first, 9.15 for the second.

`Cc1ncsc1-c1ccc([C@H](C)NC(=O)[C@@H]2C[C@@H](O)CN2C(=O)[C@@H](NC(=O)COCCCCCOc2cc(F)c([C@@H]3c4[nH]c5ccccc5c4C[C@@H](C)N3CC(C)(C)F)c(F)c2)C(C)(C)C)cc1` [Example 28, (2S,4R)-1-((S)-2-(2-((5-(3,5-Difluoro-4-((1R,3R)-2-(2-fluoro-2-methylpropyl)-3-methyl-2,3,4,9-tetrahydro-1H-pyrido[3,4-b]indol-1-yl)phenoxy)pentyl)oxy)acetamido)-3,3-dimethylbutanoyl)-4-hydroxy-N—((S)-1-(4-(4-methylthiazol-5-yl)phenyl)ethyl)pyrrolidine-2-carboxamide] and `Cc1ncsc1-c1ccc([C@H](C)NC(=O)[C@@H]2C[C@@H](O)CN2C(=O)[C@@H](NC(=O)CCOCCCCCCCOc2cc(F)c([C@@H]3c4[nH]c5ccccc5c4C[C@@H](C)N3CC(C)(C)F)c(F)c2)C(C)(C)C)cc1` [Example 114, (2S,4R)-1-((S)-2-(3-((7-(3,5-difluoro-4-((1R,3R)-2-(2-fluoro-2-methylpropyl)-3-methyl-2,3,4,9-tetrahydro-1H-pyrido[3,4-b]indol-1-yl)phenoxy)heptyl)oxy)propanamido)-3,3-dimethylbutanoyl)-4-hydroxy-N—((S)-1-(4-(4-methylthiazol-5-yl)phenyl)ethyl)pyrrolidine-2-carboxamide] are within 0.2 log units of each other in pIC50: 9.10 for the first, 9.05 for the second.

`Cc1ncsc1-c1ccc(CNC(=O)[C@@H]2C[C@@H](O)CN2C(=O)[C@@H](NC(=O)COc2cccc(COc3cc(F)c([C@@H]4c5[nH]c6ccccc6c5C[C@@H](C)N4CC(C)(C)F)c(F)c3)c2)C(C)(C)C)cc1` [Example 20, (2S,4R)-1-((S)-2-(2-(3-((3,5-difluoro-4-((1R,3R)-2-(2-fluoro-2-methylpropyl)-3-methyl-2,3,4,9-tetrahydro-1H-pyrido[3,4-b]indol-1-yl)phenoxy)methyl)phenoxy)acetamido)-3,3-dimethylbutanoyl)-4-hydroxy-N-(4-(4-methylthiazol-5-yl)benzyl)pyrrolidine-2-carboxamide] and `Cc1ncsc1-c1ccc(CNC(=O)[C@@H]2C[C@@H](O)CN2C(=O)[C@@H](NC(=O)CCCOc2ccc(COc3cc(F)c([C@@H]4c5[nH]c6ccccc6c5C[C@@H](C)N4CC(C)(C)F)c(F)c3)nc2)C(C)(C)C)cc1` [Example 161, (2S,4R)-1-((S)-2-(4-((6-((3,5-Difluoro-4-((1R,3R)-2-(2-fluoro-2-methylpropyl)-3-methyl-2,3,4,9-tetrahydro-1H-pyrido[3,4-b]indol-1-yl)phenoxy)methyl)pyridin-3-yl)oxy)butanamido)-3,3-dimethylbutanoyl)-4-hydroxy-N-(4-(4-methylthiazol-5-yl)benzyl)pyrrolidine-2-carboxamide] are within 0.2 log units of each other in pIC50: 9.00 for the first, 9.15 for the second.

Compared with `Cc1ncsc1-c1ccc(CNC(=O)[C@@H]2C[C@@H](O)CN2C(=O)[C@@H](NC(=O)CCCCCCCOCCOc2cc(F)c([C@@H]3c4[nH]c5ccccc5c4C[C@@H](C)N3CC(C)(C)F)c(F)c2)C(C)(C)C)cc1` [Example 111, (2S,4R)-1-((S)-2-(8-(2-(3,5-Difluoro-4-((1R,3R)-2-(2-fluoro-2-methylpropyl)-3-methyl-2,3,4,9-tetrahydro-1H-pyrido[3,4-b]indol-1-yl)phenoxy)ethoxy)octanamido)-3,3-dimethylbutanoyl)-4-hydroxy-N-(4-(4-methylthiazol-5-yl)benzyl)pyrrolidine-2-carboxamide], `Cc1ncsc1-c1ccc(CNC(=O)[C@@H]2C[C@@H](O)CN2C(=O)[C@@H](NC(=O)CCCCCCCCCCOc2cc(F)c([C@@H]3c4[nH]c5ccccc5c4C[C@@H](C)N3CC(C)(C)F)c(F)c2)C(C)(C)C)cc1` [Example 32, (2S,4R)-1-((S)-2-(11-(3,5-Difluoro-4-((1R,3R)-2-(2-fluoro-2-methylpropyl)-3-methyl-2,3,4,9-tetrahydro-1H-pyrido[3,4-b]indol-1-yl)phenoxy)undecanamido)-3,3-dimethylbutanoyl)-4-hydroxy-N-(4-(4-methylthiazol-5-yl)benzyl)pyrrolidine-2-carboxamide] is 0.58 log units lower in pIC50: 9.22 for the first, 8.64 for the second. The first is the more potent here.

`Cc1ncsc1-c1ccc(CNC(=O)[C@@H]2C[C@@H](O)CN2C(=O)[C@@H](NC(=O)COCCCCCN(C)CCOc2cc(F)c([C@@H]3c4[nH]c5ccccc5c4C[C@@H](C)N3CC(C)(C)F)c(F)c2)C(C)(C)C)cc1` [Example 49, (2S,4R)-1-((S)-2-(2-((5-((2-(3,5-difluoro-4-((1R,3R)-2-(2-fluoro-2-methylpropyl)-3-methyl-2,3,4,9-tetrahydro-1H-pyrido[3,4-b]indol-1-yl)phenoxy)ethyl)(methyl)amino)pentyl)oxy)acetamido)-3,3-dimethylbutanoyl)-4-hydroxy-N-(4-(4-methylthiazol-5-yl)benzyl)pyrrolidine-2-carboxamide] and `Cc1ncsc1-c1ccc(CNC(=O)[C@@H]2C[C@@H](O)CN2C(=O)[C@@H](NC(=O)COCCCCCN(CCOc2cc(F)c([C@@H]3c4[nH]c5ccccc5c4C[C@@H](C)N3CC(C)(C)F)c(F)c2)C(=O)OCc2ccccc2)C(C)(C)C)cc1` [Example 45, Benzyl (2-(3,5-difluoro-4-((1R,3R)-2-(2-fluoro-2-methylpropyl)-3-methyl-2,3,4,9-tetrahydro-1H-pyrido[3,4-b]indol-1-yl)phenoxy)ethyl)(5-(2-(((S)-1-((2S,4R)-4-hydroxy-2-((4-(4-methylthiazol-5-yl)benzyl)carbamoyl)pyrrolidin-1-yl)-3,3-dimethyl-1-oxobutan-2-yl)amino)-2-oxoethoxy)pentyl)carbamate] are within 0.2 log units of each other in pIC50: 9.00 for the first, 8.92 for the second.
